Assay results reported in patent US20240166627A1, “Terpyridinedione compound or salt thereof, and preparation method and application thereof” (SHENZHEN SALUBRIS PHARMACEUTICALS CO., LTD., priority 2021, published 2024).

System: production of TNFα in U937
Assay: Releasing TNFα from U937 induced by LPS
Format: cell-based
Conditions: Homo sapiens, U-937; PMA-differentiated U937, LPS 100 ng/ml, 4 h; read-out: IC50 value that the compound inhibits the production of TNFα
From the text: Cytokine regulation in human monocytes has shown that the p38 pathway is the key to the biosynthesis of a plurality of pro-inflammatory cytokines including TNFα, IL-1β and IL-6. Therefore, the inhibition of the p38 MAPK pathway is to reduce inflammatory response by reducing the biosynthesis of the pro-inflammatory cytokines. […] This is a reflection of the effect of the compound in the present invention to facilitate reduction of inflammation, which is useful in the treatment of various diseases, including chronic inflammatory diseases, acute inflammatory diseases, or self-inflammatory diseases. The potency and efficacy of the p38 inhibitor in blocking cytokine production are evaluated using a human U937 cell line.
A 1640 medium with an article number being A10491-01, Gibco; penicillin-streptomycin with an article number being 15140-122, Gibco; fetal bovine serum with an article number being 10099-141C, Gibco; PBS with an article number being 10010-031, Gibco; LPS with an article number being L2880, Sigma; PMA with an article number being P1585, Sigma; dimethyl sulfoxide with an article number being D8418-1L, Sigma; and a TNFα kit with an article number being K151QWD-4, MSD.
A 96-well plate with an article number being 3599, Corning; a plate-vibrating device with an article number being QB-9002, QILINBEIER; a centrifuge with an article number being 5810R, Eppendorf; a carbon dioxide incubator with an article number being 371, Thermo; a counter with an article number being C10281, Gibco; a microscope with an article number being CKX41, OLYMPUS; and an MSD plate reader with an article number being 1201 MESO SECTOR 600, MSD.
U937, ATCC with an article number being CRL-1593.2.
About 2 mg of a drug is weighted; a mother solution is prepared to 10 mM (which is calculated by free alkali) by means of DMSO; and the mother solution is diluted 10-fold to 1 mM, and then is successively diluted 4-fold to 250 μM, 62.5 μM, 15.6 μM, 3.9 μM, 0.97 μM, 0.24 μM, and 0.061 μM. The above series of diluted DMSO drugs is diluted 20-fold as working solutions by using media.
At Day 0, 10000/well inoculation is performed, stimulation is performed for 48 h with 20 ng/ml of PMA, and culture is performed at 37° C., 5% CO2. • At Day 2, 1. Supernatant is removed from differentiated U937, cleaning is performed once with PBS, and 96 μl of the 1640 medium is added. • 2. 2 μl of the compound containing (DMSO with a final concentration being 0.1%), and culture is performed for 30 min at 37° C., 5% CO2. • 3. 2 μl of LPS (a final concentration being 100 ng/ml) is added, cells are stimulated, and culture is performed for 4 h at 37° C., 5% CO2. • 4. Centrifugation is performed, supernatant is taken, and content of TNFα in the supernatant is determined through ELISA.
The content of TNFα corresponding to each well is calculated by using a standard curve in the kit.
The compound IC50 is calculated by using a GraphPad nonlinear fitting formula, and for an experimental result, refer to Table 1.

Row | Compound | IC50 [nM]
1 | Cc1cnc(-n2cccc(C(C)(C)O)c2=O)cc1-n1c(C)cc(OCc2ccc(F)cc2F)c(Cl)c1=O [Embodiment 4, 3″-chloro-4″-((2,4-difluorobenzyl)oxy)-3-(2-hydroxypropane-2-yl)-5′,6″-dimethyl-2H,2″H-[1,2′:4′,1″-terpyridine]-2,2″-diketone] | 2.05
2 | Cc1cnc(-n2cccc(C(C)(C)O)c2=O)cc1-n1c(C)cc(OCc2ncc(Cl)cc2F)c(Cl)c1=O [Embodiment 5, 3″-chloro-4″-((3-fluoro-5-chloropyridine-2-yl)methoxy)-3-(2-hydroxypropane-2-yl)-5′,6″-dimethyl-2H,2″H-[1,2′:4′,1″-terpyridine]-2,2″-diketone] | 4.05
3 | Cc1cnc(-n2cccc(C(C)(C)O)c2=O)cc1-n1c(C)cc(OCc2ccc(C#N)cc2F)c(Cl)c1=O [Embodiment 8, 4-(((3″-chloro-3-(2-hydroxypropane-2-yl)-5′,6″-dimethyl-2,2″-dioxo-2H,2″H-[1,2 2′:4′,1″-terpyridine]-4″-yl)oxy)methyl)-3-fluorobenzonitrile] | 14.4
4 | Cc1cnc(-n2cccc(C(C)(C)O)c2=O)cc1-n1c(C)cc(OCc2ccc(Cl)cc2F)c(Cl)c1=O [Embodiment 9, 3″-chloro-4″-((4-chloro-2-fluorobenzyl)oxy)-3-(2-hydroxypropane-2-yl)-5′,6″-dimethyl-2H,2″H-[1,2′:4′,1″-terpyridine]-2,2″-diketone] | 2.72
5 | Cc1cnc(-n2cccc(C(C)(C)O)c2=O)cc1-n1c(C)cc(OCc2ncccc2C)c(Cl)c1=O [Embodiment 12, 3″-chloro-4″-((3-methylpyridin-2-yl)methoxy)-3-(2-hydroxypropane-2-yl)-5′,6″-dimethyl-2H,2″H-[1,2′:4′,1″-terpyridine]-2,2″-diketone] | 5.09
6 | Cc1cnc(-n2cccc(C(C)(C)O)c2=O)cc1-n1c(C)cc(OCc2c(F)cccc2C#N)c(Cl)c1=O [Embodiment 13, 2-(((3″-chloro-3-(2-hydroxypropane-2-yl)-5′,6″-dimethyl-2,2″-dione-2H,2″H-[1,2′:4′,1″-terpyridine]-4″-yl)oxy)methyl)-3-fluorobenzonitrile] | 4.26
7 | Cc1cnc(-n2cccc(C(C)(C)O)c2=O)cc1-n1c(C)cc(OCc2ccc(Cl)cn2)c(Cl)c1=O [Embodiment 14, 3″-chloro-4″-((5-chloropyridine-2-yl)methoxy)-3-(2-hydroxypropane-2-yl)-5′,6″-dimethyl-2H,2″H-[1,2′:4′,1″-terpyridine]-2,2″-diketone] | 8.21
8 | Cc1cnc(-n2cccc(C(C)(C)O)c2=O)cc1-n1c(C)cc(OCc2c(F)cccc2F)c(Cl)c1=O [Embodiment 15, 3″-chloro-4″-((2,6-difluorophenyl)methoxy)-3-(2-hydroxypropane-2-yl)-5′,6″-dimethyl-2H,2″H-[1,2′:4′,1″-terpyridine]-2,2″-diketone] | 1.6
9 | Cc1cnc(-n2cccc(C(C)(C)O)c2=O)cc1-n1c(C)cc(OCc2cc(F)ccc2F)c(Cl)c1=O [Embodiment 18, 3″-chloro-4″-((2,5-difluorobenzyl)oxy)-3-(2-hydroxypropane-2-yl)-5′,6″-dimethyl-2H,2″H-[1,2′:4′,1″-terpyridine]-2,2″-diketone] | 2.39
10 | Cc1cnc(-n2cccc(C(C)(C)O)c2=O)cc1-n1c(C)cc(OCc2ncccc2Cl)c(Cl)c1=O [Embodiment 19, 3″-chloro-4″-((3-chloropyridine-2-yl)methoxy)-3-(2-hydroxypropane-2-yl)-5′,6″-dimethyl-2H,2″H-[1,2′:4′,1″-terpyridine]-2,2″-diketone] | 8.11
11 | Cc1cnc(-n2cccc(C(C)(C)O)c2=O)cc1-n1c(C)cc(OCc2ccc(F)cn2)c(Cl)c1=O [Embodiment 21, 3″-chloro-4″-((5-fluoropyridine-2-yl)methoxy)-3-(2-hydroxypropane-2-yl)-5′,6″-dimethyl-2H,2″H-[1,2′:4′,1″-terpyridine]-2,2″-diketone] | 7.11
